Patent US6310091A, “Fungicidal saponin, CAY-1, and isolation thereof from Capsium species fruit” (The United States of America as represented by the …, priority 2000, dated 2001)
“And” between values parts separate entries of the source, which are not always exact repeats. Equal entries are not always repeated. Where two headings read alike, the source gives them in different places.

Tests used:
[1] = system: Escherichia coli ATCC 8739; assay: Bacterial lethality; type: cell-based; details: 0.5-10 μM; 37° C., 24 hrs
Experimental: (§1) 5. Bacteria. CAY-1 lethality to Escherichia coli ATCC 8739, Enterobacter agglomerans ATCC 27996, Bacillus subtilis ATCC 6051 and Staphylococcus aureus ATCC 12600 was determined by methods described earlier (De Lucca et al., Mol. cell Biochem., 1995, 151:141-148). Briefly, 24 hr bacterial cultures were washed and resuspended in 0.1 M PBS, pH 7.2, amended with 0.15 mM MgCl2 and 0.5 mM CaCl2 and adjusted to 80% transmittance (approximately 10^8 cells/ml) at 590 nm. Bacterial suspensions were mixed with PBS and CAY-1 (final concentrations: 0, 0.5, 1, 2, 4, 8, 10 μM) in sterile 96-well plates (Nunc, Roskilde, Denmark) and incubated (37° C., 24 hrs). Bioassays were performed twice for each bacteria (n=8).

[2] = system: Bacillus subtilis ATCC 6051; assay: Bacterial lethality; type: cell-based; details: 0.5-10 μM; 37° C., 24 hrs
Experimental: as §1

[3] = system: Aspergillus flavus; assay: Time course study against germinating conidia of A. flavus; type: cell-based; details: for activity at 2 µM / activity at 3 µM / activity at 4 µM / activity at 5 µM / activity at 7.5 µM / activity at 10 µM: read-out: Percent of Mean Control
Experimental: 1. Filamentous fungi. Filamentous fungi used in bioassays included Aspergillus flavus, A. fumigatus, A. niger, A. parasiticus and Fusarium oxysporum. The fungicidal properties of CAY-1 for the nongerminated and germinating conidia of these fungi were determined separately as described by De Lucca et al. [Med. Mycol., 36:291-298 (1998)] and De Lucca et al. [Antimicrob. Agents Chemother. 43:371-373 (1999)]. […] Two separate experiments were conducted in each medium (n=8 per medium).
A suspension of the aforementioned fungi were prepared separately in the appropriate medium. Conidia (10^4 conidia/ml) were used immediately for the nongerminated conidial assays while conidia (10^5 conidia/ml) were incubated for 7.5 hours at 30° C. to obtain germinating conidia. Serial dilutions of CAY-1 were prepared in the appropriate medium (totaling 225 μl) to which was added 25 μl of the conidial suspensions. The control consisted of 225 μl of medium and 25 μl of the conidial suspension. After mixing, the samples were incubated for 30 min (30° C.). Samples were then spread on potato dextrose agar plates which were incubated at 30° C. for 24 hours. Colonies were then enumerated.
4. Time course study. The effect of time and concentration on the activity of CAY-1 was determined against the germinating conidia of A. flavus in 1% (w/v) PBD. Bioassays were performed twice as described above (n=8).
Statistical analyses. ANOVA analyses on ranks for nonparametric data were performed for the bioassays described in this example.

[4] = system: HeLa cells; assay: Mammalian cytotoxicity, HeLa cells (neutral red); type: cell-based, Human; details: at concentrations effective against the fungi and yeast
Experimental: (§2) 1. HeLa cells. Human epitheloid cervical carcinoma cells (ATCC2.2CCL) were grown in MEM media (Mediatech), supplemented with fetal bovine sera and penicillin (De Lucca et al., Antimicrob. Agents Chemother., 1999, 43:371-373). The cells were rinsed with PBS and harvested using trypsin. Cell count was determined manually using trypan blue and cells were diluted to a final concentration of 2.5×10^5 […]. Aliquots of 100 μl were dispensed per well into a 96-well plate. Cells were incubated overnight (18-24 hours) at 37° C. in a humidified 5% (v/v) CO2 environment. Neutral red dye solution was then added to each well culture and re-incubated for 3 hours. Two-fold serial dilutions of CAY-1 were prepared and aliquoted to final concentrations of 5, 10, 20, 30, and 60 μM (6, 12, 25, 37 and 74 μg/ml, respectively). Negative controls without CAY-1 were included. Cells were exposed to the saponin for 1 hour. Supernatants from each well were transferred into another 96-well plate. The remaining cells were lysed using a 2% Triton solution. Glacial acetic acid was then added to supernatants and lysates, and absorbance was read at A540.

[5] = Mammalian cytotoxicity, HeLa cells (neutral red); type: cell-based, Human; details: human, hela cells
Experimental: as §2

Q: Which results are given for `CC1CCC2(OC1)OC1CC3C4CCC5CC(OC6OC(CO)C(OC7OC(CO)C(O)C(OC8OC(CO)C(O)C(OC9OC(CO)C(O)C(O)C9O)C8O)C7OC7OC(CO)C(O)C(O)C7O)C(O)C6O)C(O)CC5(C)C4CCC3(C)C1C2C` (stereo not drawn) [CAY-1]?
A: lethality to bacteria [1]: not effective; lethality to bacteria [2]: not effective; Mean No. of Colonies ([3]; 2.5 min, 1% PDB, 2.0 μM): 184.4; Mean No. of Colonies ([3]; 2.5 min, 1% PDB, 3.0 μM): 174.3; Mean No. of Colonies ([3]; 2.5 min, 1% PDB, 4.0 μM): 170.5; Mean No. of Colonies ([3]; 2.5 min, 1% PDB, 5.0 μM): 170.0; Mean No. of Colonies ([3]; 2.5 min, 1% PDB, 7.5 μM): 160.8; Mean No. of Colonies ([3]; 2.5 min, 1% PDB, 10.0 μM): 154.8; Mean No. of Colonies ([3]; 5.0 min, 1% PDB, 2.0 μM): 182.3; Mean No. of Colonies ([3]; 5.0 min, 1% PDB, 3.0 μM): 190.1; Mean No. of Colonies ([3]; 5.0 min, 1% PDB, 4.0 μM): 171.3; Mean No. of Colonies ([3]; 5.0 min, 1% PDB, 5.0 μM): 172.4; Mean No. of Colonies ([3]; 5.0 min, 1% PDB, 7.5 μM): 163.3; Mean No. of Colonies ([3]; 5.0 min, 1% PDB, 10.0 μM): 89.8; Mean No. of Colonies ([3]; 10.0 min, 1% PDB, 2.0 μM): 135.5; Mean No. of Colonies ([3]; 10.0 min, 1% PDB, 3.0 μM): 110.8; Mean No. of Colonies ([3]; 10.0 min, 1% PDB, 4.0 μM): 119.3; Mean No. of Colonies ([3]; 10.0 min, 1% PDB, 5.0 μM): 84.3; Mean No. of Colonies ([3]; 10.0 min, 1% PDB, 7.5 μM): 32.8; Mean No. of Colonies ([3]; 10.0 min, 1% PDB, 10.0 μM): 24.9; Mean No. of Colonies ([3]; 15 min, 1% PDB, 2.0 μM): 126.0; Mean No. of Colonies ([3]; 15 min, 1% PDB, 3.0 μM): 131.9; Mean No. of Colonies ([3]; 15 min, 1% PDB, 4.0 μM): 109.1; Mean No. of Colonies ([3]; 15 min, 1% PDB, 5.0 μM): 77.6; Mean No. of Colonies ([3]; 15 min, 1% PDB, 7.5 μM): 28.1; Mean No. of Colonies ([3]; 15 min, 1% PDB, 10.0 μM): 4.4; Mean No. of Colonies ([3]; 20 min, 1% PDB, 2.0 μM): 227.4; Mean No. of Colonies ([3]; 20 min, 1% PDB, 3.0 μM): 200.0; Mean No. of Colonies ([3]; 20 min, 1% PDB, 4.0 μM): 156.4; Mean No. of Colonies ([3]; 20 min, 1% PDB, 5.0 μM): 95.5; Mean No. of Colonies ([3]; 20 min, 1% PDB, 7.5 μM): 19.8; Mean No. of Colonies ([3]; 20 min, 1% PDB, 10.0 μM): 7.6; Mean No. of Colonies ([3]; 30 min, 1% PDB, 2.0 μM): 139.8; Mean No. of Colonies ([3]; 30 min, 1% PDB, 3.0 μM): 115.4; Mean No. of Colonies ([3]; 30 min, 1% PDB, 4.0 μM): 84.1; Mean No. of Colonies ([3]; 30 min, 1% PDB, 5.0 μM): 54.2; Mean No. of Colonies ([3]; 30 min, 1% PDB, 7.5 μM): 17.1; Mean No. of Colonies ([3]; 30 min, 1% PDB, 10.0 μM): 13.1; activity at 2 µM ([3]; Aspergillus flavus, 2.5 min, 1% PDB, 2.0 μM): 110%; activity at 3 µM ([3]; Aspergillus flavus, 2.5 min, 1% PDB, 3.0 μM): 104%; activity at 4 µM ([3]; Aspergillus flavus, 2.5 min, 1% PDB, 4.0 μM): 102%; activity at 5 µM ([3]; Aspergillus flavus, 2.5 min, 1% PDB, 5.0 μM): 101%; activity at 7.5 µM ([3]; Aspergillus flavus, 2.5 min, 1% PDB, 7.5 μM): 95.8%; activity at 10 µM ([3]; Aspergillus flavus, 2.5 min, 1% PDB, 10.0 μM): 92.3%; minimal effective concentration ([3]; Aspergillus flavus, 5 min, read-out: lowest concentration with significant lethality): 7.5 µM and 9.3 µg/mL; activity at 2 µM ([3]; Aspergillus flavus, 5 min, 1% PDB, 2.0 μM): 89.2%; activity at 3 µM ([3]; Aspergillus flavus, 5 min, 1% PDB, 3.0 μM): 93%; activity at 4 µM ([3]; Aspergillus flavus, 5 min, 1% PDB, 4.0 μM): 83.8%; activity at 5 µM ([3]; Aspergillus flavus, 5 min, 1% PDB, 5.0 μM): 84.3%; activity at 7.5 µM ([3]; Aspergillus flavus, 5 min, 1% PDB, 7.5 μM): 79.9%; activity at 10 µM ([3]; Aspergillus flavus, 5 min, 1% PDB, 10.0 μM): 43.8%; activity at 2 µM ([3]; Aspergillus flavus, 10 min, 1% PDB, 2.0 μM): 102%; activity at 3 µM ([3]; Aspergillus flavus, 10 min, 1% PDB, 3.0 μM): 83.3%; activity at 4 µM ([3]; Aspergillus flavus, 10 min, 1% PDB, 4.0 μM): 89.7%; activity at 5 µM ([3]; Aspergillus flavus, 10 min, 1% PDB, 5.0 μM): 63.4%; activity at 7.5 µM ([3]; Aspergillus flavus, 10 min, 1% PDB, 7.5 μM): 24.7%; activity at 10 µM ([3]; Aspergillus flavus, 10 min, 1% PDB, 10.0 μM): 18.7%; minimal effective concentration ([3]; Aspergillus flavus, 10 min, 10 minutes post-incubation, 1% PDB, p=0.0001, read-out: concentration required for significant activity): 5 µM and 6.2 µg/mL; IC95 ([3]; Aspergillus flavus, 0.25 h, read-out: LD95): 10 µM and 12.4 µg/mL; activity at 2 µM ([3]; Aspergillus flavus, 0.25 h, 15 min, 1% PDB, 2.0 μM): 98.4%; activity at 3 µM ([3]; Aspergillus flavus, 0.25 h, 15 min, 1% PDB, 3.0 μM): 103%; activity at 4 µM ([3]; Aspergillus flavus, 0.25 h, 15 min, 1% PDB, 4.0 μM): 85.2%; activity at 5 µM ([3]; Aspergillus flavus, 0.25 h, 15 min, 1% PDB, 5.0 μM): 60.6%; activity at 7.5 µM ([3]; Aspergillus flavus, 0.25 h, 15 min, 1% PDB, 7.5 μM): 22%; activity at 10 µM ([3]; Aspergillus flavus, 0.25 h, 15 min, 1% PDB, 10.0 μM): 3.4%; activity at 2 µM ([3]; Aspergillus flavus, 20 min, 1% PDB, 2.0 μM): 98.9%; activity at 3 µM ([3]; Aspergillus flavus, 20 min, 1% PDB, 3.0 μM): 87%; activity at 4 µM ([3]; Aspergillus flavus, 20 min, 1% PDB, 4.0 μM): 68%; activity at 5 µM ([3]; Aspergillus flavus, 20 min, 1% PDB, 5.0 μM): 41.5%; activity at 7.5 µM ([3]; Aspergillus flavus, 20 min, 1% PDB, 7.5 μM): 8.6%; activity at 10 µM ([3]; Aspergillus flavus, 20 min, 1% PDB, 10.0 μM): 3.3%; activity at 2 µM ([3]; Aspergillus flavus, 0.5 h, 30 min, 1% PDB, 2.0 μM): 90.1%; activity at 3 µM ([3]; Aspergillus flavus, 0.5 h, 30 min, 1% PDB, 3.0 μM): 74.4%; activity at 4 µM ([3]; Aspergillus flavus, 0.5 h, 30 min, 1% PDB, 4.0 μM): 54.2%; activity at 5 µM ([3]; Aspergillus flavus, 0.5 h, 30 min, 1% PDB, 5.0 μM): 34.9%; activity at 7.5 µM ([3]; Aspergillus flavus, 0.5 h, 30 min, 1% PDB, 7.5 μM): 11%; activity at 10 µM ([3]; Aspergillus flavus, 0.5 h, 30 min, 1% PDB, 10.0 μM): 8.4%; lethality to mammalian cells [4]: not lethal; MCC at 1 h [5]: 30 µM and 37 µg/mL; cytotoxicity at 1 h, 30 µM [5]: ~13%; cytotoxicity at 1 h, 60 µM [5]: ~32%
